The results in this text go back to PubChem BioAssay AID256 (DTP/NCI, 2004).

SMILES strings stand for the structures. Where “and” joins values, the source holds several entries; their conditions need not be identical. Identical values can stand only once. Toxic doses and inconclusive results are not listed.

For the experiment, the system named is CD2F1 mice, L1210 leukemia ip, survival T/C. The experiment is described as follows: NCI In Vivo Anticancer Drug Screen. Data for tumor model L1210 Leukemia (intraperitoneal) in CD2F1 (CDF1) mice. The note with it: endpoint: mean survival time, higher = longer survival. The gist of the method: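 Transplantable tumor in mice; compound-treated vs vehicle-treated groups. Read-out = treated/control ratio of the measured endpoint.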

The mark [1] stands for this setting: dose: 100.0 mg/kg/injection, schedule: Q04DX003 (ip), vehicle: Klucel (hydroxypropylcellulose) (HPC).
Setting [2] is: dose: 200.0 mg/kg/injection, schedule: Q04DX003 (ip), vehicle: Klucel (hydroxypropylcellulose) (HPC).
[3] abbreviates: dose: 400.0 mg/kg/injection, schedule: Q04DX003 (ip), vehicle: Klucel (hydroxypropylcellulose) (HPC).
The mark [4] stands for this setting: dose: 100.0 mg/kg/injection, schedule: Q01DX009 (ip), vehicle: saline with Tween-80.
The mark [5] stands for this setting: dose: 200.0 mg/kg/injection, schedule: Q01DX009 (ip), vehicle: saline with Tween-80.
Where [6] appears, read: dose: 100.0 mg/kg/injection, schedule: Q04DX003 (ip), vehicle: saline with Tween-80.
The mark [7] stands for this setting: dose: 200.0 mg/kg/injection, schedule: Q04DX003 (ip), vehicle: saline with Tween-80.
Where [8] appears, read: dose: 400.0 mg/kg/injection, schedule: Q04DX003 (ip), vehicle: saline with Tween-80.
Where [9] appears, read: dose: 100.0 mg/kg/injection, schedule: Q04DX002 (ip), vehicle: saline with Tween-80.
[10] abbreviates: dose: 75.0 mg/kg/injection, schedule: Q01DX001 (ip), vehicle: saline.

`Nc1ccn(CCC(COCc2ccccc2)COCc2ccccc2)c(=O)n1`: the T/C was 100 % of control under setting [1], 96 % of control under setting [2] and 96 % of control under setting [3].
`CC(C)(C)[Si](OC(=O)N(CCCl)N=O)(c1ccccc1)c1ccccc1`: the T/C was 98 % of control (dose: 6.25 mg/kg/injection, schedule: Q01DX001 (ip), vehicle: distilled water + Tween-80); 88 % of control (dose: 12.5 mg/kg/injection, schedule: Q01DX001 (ip), vehicle: distilled water + Tween-80); 93 % of control (dose: 25.0 mg/kg/injection, schedule: Q01DX001 (ip), vehicle: distilled water + Tween-80); 88 % of control (dose: 50.0 mg/kg/injection, schedule: Q01DX001 (ip), vehicle: distilled water + Tween-80); 90 % of control (dose: 100.0 mg/kg/injection, schedule: Q01DX001 (ip), vehicle: distilled water + Tween-80).
As to `CCCCCCCCC1SC1CCCCCCCC(=O)NCCOC(=O)CCCCCCCC1SC1CCCCCCCC` (stereo not drawn), the T/C by setting is: under setting [4], 92 % of control; under setting [5], 95 % of control; (dose: 400.0 mg/kg/injection, schedule: Q01DX009 (ip), vehicle: saline with Tween-80) 93 % of control.
Regarding `O=C(CC(=O)c1cccc([N+](=O)[O-])c1)Nc1cccc([N+](=O)[O-])c1`, the T/C reads like this: (dose: 100.0 mg/kg/injection, schedule: Q01DX009 (ip), vehicle: Klucel (hydroxypropylcellulose) (HPC)) 92 % of control; under setting [1], 90 % of control; (dose: 200.0 mg/kg/injection, schedule: Q01DX009 (ip), vehicle: Klucel (hydroxypropylcellulose) (HPC)) 92 % of control; under setting [2], 96 % of control; (dose: 400.0 mg/kg/injection, schedule: Q01DX009 (ip), vehicle: Klucel (hydroxypropylcellulose) (HPC)) 94 % of control; under setting [3], 96 % of control.
In the case of `Cc1ccc(S(=O)(=O)OC2C3OCC(O3)C(O)C2O)cc1` (stereo not drawn), the T/C by setting is: under setting [6], 97 % of control; under setting [7], 94 % of control; under setting [8], 94 % of control.
As to `CCOC(=O)/C(C#N)=N/Nc1ccc(Cl)cc1`, the T/C under setting [9] was 108 % of control; the T/C (dose: 200.0 mg/kg/injection, schedule: Q04DX002 (ip), vehicle: saline with Tween-80) is 100 % of control; the T/C (dose: 400.0 mg/kg/injection, schedule: Q04DX002 (ip), vehicle: saline with Tween-80) was 92 % of control.
In the case of `Nc1cc(=O)c2[nH]cnc2[nH]1`, the T/C (dose: 100.0 mg/kg/injection, schedule: Q01DX001 (ip), vehicle: carboxymethylcellulose (CMC)) was 95 % of control; the T/C (dose: 200.0 mg/kg/injection, schedule: Q01DX001 (ip), vehicle: carboxymethylcellulose (CMC)) is 104 % of control; the T/C (dose: 400.0 mg/kg/injection, schedule: Q01DX001 (ip), vehicle: carboxymethylcellulose (CMC)) was 101 % of control.
For `NC(=S)N/N=C\c1cccs1`, the T/C was 97 % of control under setting [6], 100 % of control under setting [7] and 96 % of control under setting [8].
Taken in the same sequence, the figures for `CC(=O)Nc1ccc2c(c1)Cc1cc(NC(C)=O)c(Cl)cc1-2` were 103 % of control, 97 % of control and 98 % of control.
Consider `CCSC(C)C`, for which the T/C was 101 % of control (dose: 100.0 mg/kg/injection, schedule: Q01DX009 (ip), vehicle: saline); 96 % of control (dose: 200.0 mg/kg/injection, schedule: Q01DX009 (ip), vehicle: saline); 98 % of control (dose: 400.0 mg/kg/injection, schedule: Q01DX009 (ip), vehicle: saline).
As to `CCn1c(C)nc2cc(C(N)=O)ccc21`, the T/C under setting [4] is 97 % of control; the T/C under setting [6] was 100 % of control; the T/C under setting [5] is 91 % of control; the T/C under setting [7] is 96 % of control; the T/C under setting [8] was 102 % of control.
For the molecule `COC(=O)/C(C#N)=C(\C)CC(C)C`, the T/C reads like this: under setting [10], 100 % of control; (dose: 150.0 mg/kg/injection, schedule: Q01DX001 (ip), vehicle: saline) 94 % of control.
As to `O=C1C(Br)=CC2C1C1C=CC2(Br)C1=O` (stereo not drawn), the T/C by setting is: (dose: 50.0 mg/kg/injection, schedule: Q01DX001 (ip), vehicle: saline with Tween-80) 109 % of control; (dose: 100.0 mg/kg/injection, schedule: Q01DX001 (ip), vehicle: saline with Tween-80) 103 % of control; (dose: 200.0 mg/kg/injection, schedule: Q01DX001 (ip), vehicle: saline with Tween-80) 101 % of control.
For `CN(C)C(=C1C=CC=C1)N(C)C`, the T/C under setting [10] is 95 % of control.
`COc1ccc(/C=N/NC(=S)Nc2ccccn2)cc1OC`: the T/C is 92 % of control (dose: 25.0 mg/kg/injection, schedule: Q04DX002 (ip), vehicle: saline with Tween-80); 92 % of control (dose: 50.0 mg/kg/injection, schedule: Q04DX002 (ip), vehicle: saline with Tween-80); 88 % of control and 95 % of control under setting [9].
Regarding `CSc1nc(Cl)cc(Sc2nc(N)nc3nc[nH]c23)n1`, the T/C reads like this: (dose: 18.75 mg/kg/injection, schedule: Q01DX009 (ip), vehicle: Klucel (hydroxypropylcellulose) (HPC)) 173 % of control; (dose: 37.5 mg/kg/injection, schedule: Q01DX009 (ip), vehicle: Klucel (hydroxypropylcellulose) (HPC)) 175 % of control; (dose: 150.0 mg/kg/injection, schedule: Q01DX009 (ip), vehicle: Klucel (hydroxypropylcellulose) (HPC)) 97 % of control.
As to `COC(=O)C(F)C(Br)C(=O)OC` (stereo not drawn), the T/C runs as follows: (dose: 3.12 mg/kg/injection, schedule: Q01DX009 (ip), vehicle: saline with Tween-80) 108 % of control; (dose: 6.25 mg/kg/injection, schedule: Q01DX009 (ip), vehicle: saline with Tween-80) 97 % of control; (dose: 12.5 mg/kg/injection, schedule: Q01DX009 (ip), vehicle: saline with Tween-80) 107 % of control; (dose: 25.0 mg/kg/injection, schedule: Q01DX009 (ip), vehicle: saline with Tween-80) 105 % of control; (dose: 50.0 mg/kg/injection, schedule: Q01DX009 (ip), vehicle: saline with Tween-80) 108 % of control.
`COCC(=O)C(C(C)=O)C(c1ccc2c(c1)OCO2)C(C(C)=O)C(=O)COC` (stereo not drawn): the T/C was 96 % of control under setting [6], 101 % of control under setting [7] and 96 % of control under setting [8].
`O=C(O)/C=C\C(=O)O`: the T/C is 107 % of control (dose: 0.5 mg/kg/injection, schedule: Q04DX003 (ip), vehicle: saline with Tween-80); 100 % of control (dose: 1.0 mg/kg/injection, schedule: Q01DX009 (ip), vehicle: saline); 95 % of control (dose: 1.0 mg/kg/injection, schedule: Q04DX003 (ip), vehicle: saline with Tween-80); 89 % of control and 95 % of control (dose: 1.56 mg/kg/injection, schedule: Q04DX003 (ip), vehicle: saline); 97 % of control (dose: 2.0 mg/kg/injection, schedule: Q01DX009 (ip), vehicle: saline); 103 % of control (dose: 3.0 mg/kg/injection, schedule: Q04DX003 (ip), vehicle: saline with Tween-80). For the same molecule, the T/C is 87 % of control and 91 % of control (dose: 3.13 mg/kg/injection, schedule: Q04DX003 (ip), vehicle: saline); 103 % of control (dose: 6.0 mg/kg/injection, schedule: Q04DX003 (ip), vehicle: saline with Tween-80); 92 % of control and 96 % of control (dose: 6.25 mg/kg/injection, schedule: Q04DX003 (ip), vehicle: saline).
On to `O=C1CCCC2C1CCCC21OCCO1` (stereo not drawn), for which the T/C is, setting by setting: (dose: 25.0 mg/kg/injection, schedule: Q04DX003 (ip), vehicle: saline) 93 % of control; (dose: 50.0 mg/kg/injection, schedule: Q04DX003 (ip), vehicle: saline) 100 % of control; (dose: 100.0 mg/kg/injection, schedule: Q04DX003 (ip), vehicle: saline) 102 % of control.
Turning to `CN(C)c1ccc2c(N(C)C)cc(N(C)C)nc2c1`, the T/C (dose: 0.78 mg/kg/injection, schedule: Q01DX009 (ip), vehicle: Klucel (hydroxypropylcellulose) (HPC)) is 106 % of control; the T/C (dose: 1.56 mg/kg/injection, schedule: Q01DX009 (ip), vehicle: Klucel (hydroxypropylcellulose) (HPC)) was 102 % of control; the T/C (dose: 3.12 mg/kg/injection, schedule: Q01DX009 (ip), vehicle: Klucel (hydroxypropylcellulose) (HPC)) was 104 % of control; the T/C (dose: 6.25 mg/kg/injection, schedule: Q01DX009 (ip), vehicle: Klucel (hydroxypropylcellulose) (HPC)) is 98 % of control; the T/C (dose: 12.5 mg/kg/injection, schedule: Q01DX009 (ip), vehicle: Klucel (hydroxypropylcellulose) (HPC)) is 113 % of control and 96 % of control; the T/C (dose: 25.0 mg/kg/injection, schedule: Q01DX009 (ip), vehicle: Klucel (hydroxypropylcellulose) (HPC)) was 88 % of control.
